Data published in patent US8557737B2, “Methods of altering poppy characteristics” (priority 2005, dated 2013).

Key:
Type in all cases: in vivo, Papaver somniferum
poppy crops [1] = experiment: Example 16: field trial, metsulfuron-methyl, mesosulfuron-methyl and triasulfuron at row cover and ground cover/early run-up, morphine crop; details: Trt 5: COMPOUND 2 150 MG/HA + ACTIVATOR .125% V/V at RC and GC/ERU
Method: (§1) All trials were conducted on poppy crops. Seed was treated with Thiram (5.6 g of Thiram 800/kg seed) and Apron (4 g/kg) and sown at a rate of approximately 750 g/ha. Fertilisers were applied at sowing. Most commonly, either 50:50 lime:superphosphate/triple superphosphate at 125 kg/ha, or lime:superphosphate at 250 kg/ha, were mixed with seed and drilled at a depth of 15 mm. In the same operation, NPK (nitrogen:phosphorus:potassium), at various rates, was banded 75 mm below the seed, unless otherwise stated. All crops were subjected to herbicide sprays for weed control, fungicide sprays for disease control, insecticide sprays if appropriate and were irrigated as required.
(§2) All spray applications were made with a precision sprayer, using Silvan Lurmark flat-fan, low-drift nozzles (LD110-0015). Spray equipment was calibrated to deliver 153 L water/ha.
(§3) At harvest, a 2 m×4 m quadrat was placed in each plot (3 m×6 m, unless otherwise stated) and capsules hand-picked from this area. Capsules were broken up, seed and capsule material separated and weighed. Capsule moisture readings were taken with a moisture meter. Alkaloid yield data were calculated on Pesticide Research Manager (version 5 for Windows) using the formulae below. Briefly, capsule weight was adjusted for moisture to a dry weight, 5% of seed weight was added to this (this amount of capsule material regularly occurs in seed samples after processing) to give a capsule weight per plot. Seed weight was adjusted to 95% of crude weight. Straw weights were determined by multiplying dry capsule weight by 1.3 (estimated amount of stem material in a commercial harvest) and adjusted to 11% moisture. When Lontrel was applied to crops exact capsule and seed weight data were entered. Analyses of variance and a Multiple Range Test were performed on data using Pesticide Research Manager.
Trial to evaluate applications of metsulfuron-methyl (Compound 1), mesosulfuron-methyl (Compound 2) and triasulfuron (Compound 3), in a morphine crop. Treatment sprays were applied to crop at row cover and ground cover/early run-up, respectively. Plant heights were assessed 5 weeks after last application and lodging was assessed at capsule harvest.

poppy crops [2] = experiment: Example 9: field trial, mesosulfuron-methyl and metsulfuron-methyl, morphine crop; details: for LODGING: assessed on the day of capsule harvest; for HEIGHT: measured at green capsule stage
Method: as §1, §2, §3
Trial to evaluate applications of mesosulfuron-methyl (Compound 2) and metsulfuron-methyl (Compound 1), in a morphine crop. Treatment sprays were applied to crop at ground cover, late run-up and early bud-emergence, respectively. Plant heights were measured at green capsule stage, and lodging assessed on the day of capsule harvest.

poppy crops [3] = experiment: Example 18: field trial, triasulfuron, mesosulfuron-methyl and metsulfuron-methyl at row cover, mid run-up and early hook, morphine crop; details: Trt 5: COMPOUND 2 150 MG/HA + ACTIVATOR .125% V/V at RC, MRU and LRU
Method: as §1, §2, §3
Trial to evaluate applications of triasulfuron, mesosulfuron-methyl and metsulfuron-methyl, in a morphine crop. […] Plant heights were measured 5 weeks after last application and lodging at capsule harvest.

poppy crops [4] = experiment: Example 17: field trial, triasulfuron, mesosulfuron-methyl and metsulfuron-methyl at early run-up and mid-late run-up, morphine crop; details: Trt 5: COMPOUND 2 150 MG/HA + ACTIVATOR .125% V/V at ERU and M-LRU
Method: as §1, §2, §3
Trial to evaluate applications of triasulfuron, mesosulfuron-methyl and metsulfuron-methyl, in a morphine crop. Treatment sprays were applied to with crop at early run-up and mid-late run-up, respectively. Plant heights were measured on 6 weeks after last application and lodging was assessed at capsule harvest.

[5] = COMPOUND 2 390 MG/HA + ACTIVATOR .125 % V/V at GC and EBE
[6] = COMPOUND 2 390 MG/HA + ACTIVATOR .125 % V/V at GC, LRU and EBE

**Q.** Which “CAPS/SEED RATIO” value (poppy crops [1]) does the source give for COC(=O)c1ccc(CNS(C)(=O)=O)cc1S(=O)(=O)NC(=O)Nc1nc(OC)cc(OC)n1 [Compound 2, mesosulfuron-methyl] here?
**A.** 0.825 c

**Q.** What about the “CROP WEIGHT” value (poppy crops [1]) of the same compound?
**A.** 3.65 ab t/ha

**Q.** And the MORPHINE (poppy crops [1])?
**A.** 43.77 ab kg/ha

**Q.** And the SEED (poppy crops [1])?
**A.** 1671 b kg/ha

**Q.** And the STRAW (poppy crops [1])?
**A.** 1976 ab kg/ha

**Q.** And the “STRAW MORPHINE” value (poppy crops [1])?
**A.** 2.21 a %

**Q.** And the “PLANT HEIGHT” value (poppy crops [1]; 5 weeks after last application)?
**A.** 101.6 b cm

**Q.** What about the “CAPSULE/SEED RATIO” value (poppy crops [2]; [5]) of the same compound?
**A.** 2.084 b

**Q.** What about the “CROP WEIGHT” value (poppy crops [2]; [5]) of the same compound?
**A.** 1.80 c t/ha

**Q.** What about the MORPHINE (poppy crops [2]; [5]) of the same compound?
**A.** 26.41 b kg/ha

**Q.** What about the SEED (poppy crops [2]; [5]) of the same compound?
**A.** 460 b kg/ha

**Q.** And the STRAW (poppy crops [2]; [5])?
**A.** 1342 c kg/ha

**Q.** What about the “STRAW MORPHINE” value (poppy crops [2]; [5]) of the same compound?
**A.** 2.10 a %

**Q.** And the LODGING (poppy crops [2]; [5])?
**A.** 6.5 bc %

**Q.** What about the HEIGHT (poppy crops [2]; [5]) of the same compound?
**A.** 96.0 ab cm

**Q.** And the “CAPSULE/SEED RATIO” value (poppy crops [2]; [6])?
**A.** 1.854 b

**Q.** And the “CROP WEIGHT” value (poppy crops [2]; [6])?
**A.** 1.16 d t/ha

**Q.** What about the MORPHINE (poppy crops [2]; [6]) of the same compound?
**A.** 15.27 c kg/ha

**Q.** And the SEED (poppy crops [2]; [6])?
**A.** 336 b kg/ha

**Q.** And the STRAW (poppy crops [2]; [6])?
**A.** 827 d kg/ha

**Q.** And the “STRAW MORPHINE” value (poppy crops [2]; [6])?
**A.** 2.03 a %

**Q.** And the LODGING (poppy crops [2]; [6])?
**A.** 11.0 ab %

**Q.** What about the HEIGHT (poppy crops [2]; [6]) of the same compound?
**A.** 89.3 b cm

**Q.** And the “CAPS/SEED RATIO” value (poppy crops [3])?
**A.** 1.071 b

**Q.** And the “CROP WEIGHT” value (poppy crops [3])?
**A.** 3.25 a t/ha

**Q.** And the MORPHINE (poppy crops [3])?
**A.** 42.83 b kg/ha

**Q.** What about the SEED (poppy crops [3]) of the same compound?
**A.** 1281 b kg/ha

**Q.** And the STRAW (poppy crops [3])?
**A.** 1917 b kg/ha

**Q.** And the “STRAW MORPHINE” value (poppy crops [3])?
**A.** 2.23 b %

**Q.** And the “PLANT HEIGHT” value (poppy crops [3]; 5 weeks after last application)?
**A.** 96.4 b cm

**Q.** What about the LODGING (poppy crops [3]; at capsule harvest) of the same compound?
**A.** 2.8 a %

**Q.** What about the “CAPS/SEED RATIO” value (poppy crops [4]) of the same compound?
**A.** 2.315 days

**Q.** What about the “CROP WEIGHT” value (poppy crops [4]) of the same compound?
**A.** 2.57 b t/ha

**Q.** What about the MORPHINE (poppy crops [4]) of the same compound?
**A.** 41.97 b kg/ha

**Q.** And the SEED (poppy crops [4])?
**A.** 612 b kg/ha

**Q.** What about the STRAW (poppy crops [4]) of the same compound?
**A.** 1910 b kg/ha

**Q.** And the “STRAW MORPHINE” value (poppy crops [4])?
**A.** 2.23 b %

**Q.** What about the “PLANT HEIGHT” value (poppy crops [4]; 6 weeks after last application) of the same compound?
**A.** 104.0 b cm

**Q.** And the LODGING (poppy crops [4]; at capsule harvest)?
**A.** 2.8 b %
